Tested on: M17—3TAU(P301L) cells
Assay: Neuroblastoma tauopathy model: inhibition of TAU-induced cytotoxicity (LDH)
Format: cell-based
Conditions: Homo sapiens, 168 h; inhibition of TAU-induced toxicity (LDH), 7 days differentiation with retinoic acid
Source text: A TAU expression plasmid was constructed by sub-cloning the cDNA encoding for human TAU-P301L protein, wherein proline at position 301 is substituted by a leucine residue, into mammalian expression vector pcDNA3.1 resulting in the plasmid pcDNA3.1-TAUP301L. Plasmids pcDNA3.1 and pcDNA3.1-TAU P301L were transfected into human neuroblastoma cells (BE-M17; ATCC No. CRL-2267™) using lipofectamine reagent and subsequently, independent clonal cell lines with the plasmids stably integrated into the genome were selected by antibiotic resistance selection (Geneticin (G418)), resulting in cell lines M17.pcDNA3 and M17—3TAUP301L. Expression of the TAUP301L gene in the M17—3TAUP301L cells was confirmed by Western blot analysis.
Differentiation of the cells with RA leads to phosphorylation and subsequent aggregation of TAU, inducing a tauopathy in these cells. Cytotoxicity of cells was measured by quantification of lactate dehydrogenase (LDH) levels. In dead cells LDH is leaked out of the cells into the medium due to a loss of plasma-membrane integrity.
Briefly, 3 days preceding the experiment pre-cultures of M17.pcDNA3 and M17—3TAU(P301L) cells were prepared, starting from a stock culture, at a density of 50.000-100.000 cells/cm2 in detection medium (Optimem Reduced Serum without phenol red (Gibco, Cat. 31985-047) supplemented with 1% fetal calf serum (FCS), 1 mM sodium pyruvate, 1× non-essential amino acids (NEAA), 500 μg/ml G418 and 0.5× antibiotic/antimycotic (ABAM)). At the day of the experiment these precultures were diluted to ˜0, 1.106 cells/ml in detection medium without FCS and 60 μL of this suspension is dispensed per well into a 96-well microtiter plate. After 3 hours of incubation at 37° C./5% CO2 an equal volume of detection medium containing 2.5 μM RA was added and subsequently incubated for 7 days at 37° C./5% CO2. After 7 days, LDH activity was determined using the Promega Cytotox 96 Non-Radioactive cytotoxicity assay (Cat. G1780), according the manufacturer's instructions. Cytotoxicity is measured as the ratio of LDH increase in the supernatant divided by the LDH increase in the total cell suspension (sum of the LDH measured in cells and supernatant).
The M17—3TAU(P301L) cell line makes it possible to assess the ability of novel compounds to inhibit TAU-induced cytotoxicity. […] Compounds were tested for their ability to hamper TAU-induced toxicity at different concentrations, ranging from low non-effective concentrations to high potent concentrations. Afterwards, the dose-dependent inhibition curve was used to calculate their EC50 (Table 1).

| Structure (SMILES) | EC50 [nM] |
| --- | --- |
| COc1ccccc1CCN1CCN(c2nc(-c3ccc(Cl)cc3)ns2)CC1 [Example 27, 1-[3-(4-Chloro-phenyl)-[1,2,4]thiadiazol-5-yl]-4-[2-(2-methoxy-phenyl)-ethyl]-piperazine] | 16.7 |
| COc1ccc(CCN2CCN(c3nc(-c4ccc(F)cc4OC)ns3)CC2)cc1 [Example 67, 1-[3-(4-Fluoro-2-methoxy-phenyl)-[1,2,4]thiadiazol-5-yl]-4-[2-(4-methoxy-phenyl)-ethyl]-piperazine] | 1 |
| COc1cccc(CCN2CCN(c3nc(-c4ccc(Cl)cc4)ns3)CC2)c1 [Example 14, 1-[3-(4-Chloro-phenyl)-[1,2,4]thiadiazol-5-yl]-4-[2-(3-methoxy-phenyl)-ethyl]-piperazine] | 4.8 |
| Fc1cccc(-c2nsc(N3CCN(CCC4CCCCC4)CC3)n2)c1 [Example 154, 1-(2-Cyclohexyl-ethyl)-4-[3-(3-fluoro-phenyl)[1,2,4]thiadiazol-5-yl]-piperazine] | 17 |
| COc1ccc(CCN2CCN(c3nc(-c4ccc(Cl)cc4)ns3)CC2)cc1F [Example 80, 1-[3-(4-Chloro-phenyl)-[1,2,4]thiadiazol-5-yl]-4-[2-(3-fluoro-4-methoxy-phenyl)-ethyl]-piperazine] | 2.7 |
| FC(F)(F)c1cccc(CCN2CCN(c3nc(-c4cc(Cl)ccn4)ns3)CC2)c1 [Example 159, 3-(4-chloropyridin-2-yl)-5-(4-(3-(trifluoromethyl)phenethyl)piperazin-1-yl)-1,2,4-thiadiazole] | 119 |
| COc1ccc(CCN2CCN(c3nc(-c4cccc(C#N)c4)ns3)CC2)cn1 [Example 115, 3-(5-{4-[2-(6-Methoxy-pyridin-3-yl)-ethyl]-piperazin-1-yl}-[1,2,4]thiadiazol-3-yl)-benzonitrile] | 2.3 |
| COc1cc(CCN2CCN(c3nc(-c4cnc(C)nc4)ns3)CC2)ccn1 [Example 183, 5-(4-(2-(2-methoxypyridin-4-yl)ethyl)piperazin-1-yl)-3-(2-methylpyrimidin-5-yl)-1,2,4-thiadiazole] | 152 |
| COc1ccc(CCN2CCN(c3nc(-c4cccc(Cl)c4)ns3)CC2)cn1 [Example 93, 1-[3-(3-Chloro-phenyl)-[1,2,4]thiadiazol-5-yl]-4-[2-(6-methoxy-pyridin-3-yl)-ethyl]-piperazine] | 0.9 |
| Fc1ccc(CCN2CCN(c3nc(-c4ccc(Cl)cn4)ns3)CC2)cc1F [Example 139, 1-[3-(5-Chloro-pyridin-2-yl)-[1,2,4]thiadiazol-5-yl]-4-[2-(3,4-difluoro-phenyl)-ethyl]-piperazine] | 47.2 |
| COc1cccc(CCN2CCN(c3nc(-c4cccc(OC)c4)ns3)CC2)c1 [Example 15, 1-[2-(3-Methoxy-phenyl)-ethyl]-4-[3-(3-methoxy-phenyl)-[1,2,4]thiadiazol-5-yl]-piperazine] | 21.4 |
| COc1cccc(C(O)CN2CCN(c3nc(-c4ccc(Cl)cc4)ns3)CC2)c1 (centres unmarked) [Example 61, 2-{4-[3-(4-Chloro-phenyl)-[1,2,4]thiadiazol-5-yl]-piperazin-1-yl}-1-(3-methoxy-phenyl)-ethanol] | 44.4 |
| COc1cccc(-c2nsc(N3CCN(Cc4ccccc4C)CC3)n2)c1 [Example 13, 1-[3-(3-Methoxy-phenyl)-[1,2,4]thiadiazol-5-yl]-4-(2-methyl-benzyl)-piperazine] | 215 |
| COc1ccc(CCN2CCN(c3nc(-c4ccc(C#N)cc4)ns3)CC2)cc1 [Example 78, 4-(5-{4-[2-(4-Methoxy-phenyl)-ethyl]-piperazin-1-yl}-[1,2,4]thiadiazol-3-yl)-benzonitrile] | 2.1 |
| Cc1cc(-c2nsc(N3CCN(CCc4ccc(F)cc4)CC3)n2)cnn1 [Example 174, 5-(4-(4-fluorophenethyl)piperazin-1-yl)-3-(6-methylpyridazin-4-yl)-1,2,4-thiadiazole] | 12.6 |
| CCOc1ccc(CCN2CCN(c3nc(-c4ccc(Cl)cc4)ns3)CC2)cc1 [Example 50, 1-[3-(4-Chloro-phenyl)-[1,2,4]thiadiazol-5-yl]-4-[2-(4-ethoxy-phenyl)-ethyl]-piperazine] | 169 |
| FC(F)(F)c1ccc(CCN2CCN(c3nc(-c4cccc(Cl)c4)ns3)CC2)cc1 [Example 145, 1-[3-(3-Chloro-phenyl)-[1,2,4]thiadiazol-5-yl]-4-[2-(4-trifluoromethyl-phenyl)-ethyl]-piperazine] | 462 |
| CC(C)Oc1cccc(CCN2CCN(c3nc(-c4ccc(Cl)cc4)ns3)CC2)c1 [Example 51, 1-[3-(4-Chloro-phenyl)-[1,2,4]thiadiazol-5-yl]-4-[2-(3-isopropoxy-phenyl)-ethyl]-piperazine] | 152 |
| COc1cc(CCN2CCN(c3nc(-c4ccc(C#N)cc4)ns3)CC2)ccn1 [Example 116, 4-(5-{4-[2-(2-Methoxy-pyridin-4-yl)-ethyl]-piperazin-1-yl}-[1,2,4]thiadiazol-3-yl)-benzonitrile] | 14.1 |
| Clc1cncc(-c2nsc(N3CCN(CCc4ccccc4)CC3)n2)c1 [Example 130, 1-[3-(5-Chloro-pyridin-3-yl)-[1,2,4]thiadiazol-5-yl]-4-phenethyl-piperazine] | 0.9 |
| N#Cc1cccc(-c2nsc(N3CCN(CCc4ccccc4)CC3)n2)c1 [Example 109, 3-[5-(4-Phenethyl-piperazin-1-yl)-[1,2,4]thiadiazol-3-yl]-benzonitrile] | 3 |
| COc1cccc(CCN2CCN(c3nc(-c4ccc(F)cc4)ns3)CC2)c1 [Example 34, 1-[3-(4-Fluoro-phenyl)-[1,2,4]thiadiazol-5-yl]-4-[2-(3-methoxy-phenyl)-ethyl]-piperazine] | 1.4 |
| Fc1cccc(-c2nsc(N3CCN(CCc4ccc(F)c(F)c4)CC3)n2)c1 [Example 156, 5-(4-(3,4-difluorophenethyl)piperazin-1-yl)-3-(3-fluorophenyl)-1,2,4-thiadiazole] | 11.9 |
| Cc1ccccc1CN1CCN(c2nc(-c3cc(Cl)ccn3)ns2)CC1 [Example 128, 1-[3-(4-Chloro-pyridin-2-yl)-[1,2,4]thiadiazol-5-yl]-4-(2-methyl-benzyl)-piperazine] | 110 |
| Clc1ccc(-c2nsc(N3CCN(CCC4CCCCC4)CC3)n2)cc1 [Example 161, 3-(4-chlorophenyl)-5-(4-(2-cyclohexylethyl)piperazin-1-yl)-1,2,4-thiadiazole] | 39.6 |
| CC(C)Oc1ccc(CCN2CCN(c3nc(-c4ccc(Cl)cc4)ns3)CC2)cc1 [Example 71, 1-[3-(4-Chloro-phenyl)-[1,2,4]thiadiazol-5-yl]-4-[2-(4-isopropoxy-phenyl)-ethyl]-piperazine] | 429 |
| COc1cc(CCN2CCN(c3nc(-c4ccc(Cl)cc4)ns3)CC2)ccn1 [Example 75, 1-[3-(4-Chloro-phenyl)-[1,2,4]thiadiazol-5-yl]-4-[2-(2-methoxy-pyridin-4-yl)-ethyl]-piperazine] | 13.4 |
| COc1ccc(CCN2CCN(c3nc(-c4cccc(C#N)c4)ns3)CC2)cc1 [Example 81, 3-(5-{4-[2-(4-Methoxy-phenyl)-ethyl]-piperazin-1-yl}-[1,2,4]thiadiazol-3-yl)-benzonitrile] | 0.6 |
| Cc1ccccc1CN1CCN(c2nc(-c3cccc(Cl)c3)ns2)CC1 [Example 92, 1-[3-(3-Chloro-phenyl)-[1,2,4]thiadiazol-5-yl]-4-(2-methyl-benzyl)-piperazine] | 43.3 |
